{"source": "patent US20220062291A1", "about": "“COMPOSITIONS AND METHODS OF TREATING CANCERS BY ADMINISTERING A PHENOTHIAZINE-RELATED DRUG THAT ACTIVATES PROTEIN PHOSPHATASE 2A (PP2A) WITH REDUCED INHIBITORY ACTIVITY TARGETED TO THE DOPAMINE D2 RECEPTOR AND ACCOMPANYING TOXICITY” (DANA-FARBER CANCER INSTITUTE, INC., priority 2018, published 2022)", "key": {"KOPT-K1 cells [1]": {"system": "KOPT-K1 cells", "assay": "KOPT-K1 cell viability (PrestoBlue), IC50 after 72 hours", "format": "cell-based, human", "conditions": "for IC50: 72 hours, PrestoBlue, read-out: IC50 value against KOPT-K1 cells", "protocol": "(§1) For IC50 calculation, KOPT-K1 cells were treated with each of the compounds at various concentrations for 72 hours, followed by the determination of viable cell numbers with PrestoBlue® cell viability reagent. For the PP2A phosphatase activity assay, KOPT-K1 cells were treated with each of the compounds at 10 μM for 3 hours before phosphatase activity was measured. Dopamine D2 receptor activity was monitored in HEK293T cells coexpressing the dopamine D2 receptor, modified G protein and SRE luciferase reporter. Cells were treated with each of the compound at 10 μM for 3 hours, then lysed for the luciferase reporter assay.\n(§2) For IC50 calculations, KOPT-K1 cells were treated with each of the compound at various concentrations for 72 hours, then their viability was examined by PrestoBlue® Cell Viability Reagent (Thermo Fisher Scientific). For PP2A phosphatase activity assay, KOPT-K1 cells were treated with each of the compound at 10 μM for three hours before the activity of PP2A was quantified using PP2A Immunoprecipitation Phosphatase Assay Kit (Merck Millipore®). DRD2 activity was monitored in HEK293T cells expressing DRD2, modified G protein and SRE luciferase reporter. Cells were treated with each of the compounds at 10 μM for three hours, then lysed for luciferase reporter assay. […] The biochemical assays were performed as indicated in Examples 7 and 8."}, "[2]": {"system": "KOPT-K1 cells with PP2A subunit inactivation", "assay": "Drug sensitivity of KOPT-K1 sublines with CRISPR-Cas9 PP2A subunit knockout", "format": "cell-based, human", "conditions": "SMAP 5 μM, 72 hours", "protocol": "Two gRNAs with different target sequences were designed for each subunit (#1 and #2). Control gRNAs target luciferase gene. […] Data are presented as means±s.d. (n=3-5, biological replicates). ***P<0.001 by Student's t-test (FIG. 3A).\nSMAP sensitivity in KOPT-K1 cells was measured after PP2A subunit inactivation. Only each subunit of PP2A was knocked out by CRISPR-Cas9 with unique gRNAs. […] Two gRNAs with different target sequences were designed for each subunit (#1 and #2). Control gRNAs target luciferase gene. Data are presented as means±s.d. (n=3-5, biological replicates). ***P<0.001 by Student's t-test (FIG. 3B).\nTo identify the subunits of PP2A that are essential for the antitumor activity of iPAP1, CRISPR-Cas9 was used to establish a series of sublines of KOPT-K1 T-ALL cells, each lacking one of the 19 specific PP2A subunits (FIG.1A-FIG. 2), and to examine their sensitivity to iPAP1-induced growth inhibition.\nWith this panel of PP2A subunit knockout cells in hand, we analyzed the PP2A subunits required for growth suppression by SMAPs, another class of allosteric activators of PP2A (Gutierrez et al., J. Clin. Invest. 124:644-655 (2014); Sangodkar et al., J. Clin. Invest. 127:2081-2090 (2017)). […] Both the PPP2R5E and PPP2R2A regulatory subunits of PP2A were among the most highly expressed in a series of 16 different T-ALL cell lines (FIG. 5A). Thus, the assembly of structurally different heterotrimeric PP2A complexes induced with either iPAP1 or SMAP cannot be attributed to imbalances in cellular expression levels of individual PP2A subunits, but likely stems from differences in the allosteric alterations of the A subunit protein resulting from the binding of these two classes of small molecules, which have different chemical structures."}, "PP2A subunits": {"system": "PP2A subunits", "assay": "Co-immunoprecipitation of PP2A subunits (holoenzyme assembly)", "design": "species or system human", "conditions": "KOPT-K1 cells, 10 μM, 24 hours", "source_text": "The biochemical activity of iPAP1 was further characterized by addressing whether it acts exclusively on the three identified subunits to mediate the assembly of PP2A, or whether other proteins expressed by T-ALL cells are also required. Using baculovirus vectors, each subunit of PP2A was first expressed with a C-terminal tag in Hi5 insect cells, and then purified the subunit proteins using columns with antibodies against the tags bound to agarose beads (see, Example 5, FIG. 13-FIG. 14). […] PP2A is a unique enzyme consisting of three subunits and it needs to be properly assembled into a holoenzyme before it mediates phosphatase activity. […] The protein lysates were then immunoprecipitated with anti-PPP2CA antibody or normal IgG as a control, and the precipitates were immunoblotted with antibodies specifically detecting each of the PP2A subunits. […] Nuclear and cytoplasmic fractions were separated using NE-PER™ Nuclear and Cytoplasmic Extraction Kit (Thermo Fisher Scientific), and each of the subunits of PP2A was analyzed by western blot. Histone H3 and α tubulin expression levels were used as loading controls for nuclear and cytoplasmic fractions, respectively. […] Lysates were immunoprecipitated using an anti-PPP2CA antibody, and then blotted with antibodies specific for each PP2A subunit. […] The results of a co-immunoprecipitation assay using an anti-PPP2CA antibody for immunoprecipitation in KOPT-K1 cells treated with SMAP at 10 μM or control DMSO for 24 hours before they were lysed for protein extraction are illustrated in FIG. 9B. Lysates were immunoprecipitated using an anti-PPP2CA antibody, and then blotted with antibodies specific for each PP2A subunit."}, "PP2A [3]": {"biological_target": "T1, PP2A (Homo sapiens, UniProt P30153+P67775+Q16537)", "T1 construct": "are endogenously expressed by KOPTK1 cells; endogenous in cells; host or cells: KOPT-K1 T-ALL cells / lysates", "T1 sequence (P30153 2-589)": "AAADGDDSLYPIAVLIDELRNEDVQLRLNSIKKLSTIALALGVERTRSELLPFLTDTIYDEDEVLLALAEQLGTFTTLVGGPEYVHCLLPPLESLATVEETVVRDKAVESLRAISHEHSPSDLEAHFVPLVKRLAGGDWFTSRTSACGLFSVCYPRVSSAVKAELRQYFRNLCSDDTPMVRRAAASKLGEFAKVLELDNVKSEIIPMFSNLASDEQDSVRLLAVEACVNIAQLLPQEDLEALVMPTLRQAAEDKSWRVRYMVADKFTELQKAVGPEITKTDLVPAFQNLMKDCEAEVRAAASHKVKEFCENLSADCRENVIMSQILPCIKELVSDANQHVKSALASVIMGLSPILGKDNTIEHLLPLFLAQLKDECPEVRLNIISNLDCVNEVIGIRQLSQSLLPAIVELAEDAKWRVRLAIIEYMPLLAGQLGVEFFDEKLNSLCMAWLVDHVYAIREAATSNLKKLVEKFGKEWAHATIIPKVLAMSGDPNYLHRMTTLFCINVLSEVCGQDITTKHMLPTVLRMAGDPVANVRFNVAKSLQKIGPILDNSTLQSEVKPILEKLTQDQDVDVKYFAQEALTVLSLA", "T1 sequence (P67775 whole entry)": "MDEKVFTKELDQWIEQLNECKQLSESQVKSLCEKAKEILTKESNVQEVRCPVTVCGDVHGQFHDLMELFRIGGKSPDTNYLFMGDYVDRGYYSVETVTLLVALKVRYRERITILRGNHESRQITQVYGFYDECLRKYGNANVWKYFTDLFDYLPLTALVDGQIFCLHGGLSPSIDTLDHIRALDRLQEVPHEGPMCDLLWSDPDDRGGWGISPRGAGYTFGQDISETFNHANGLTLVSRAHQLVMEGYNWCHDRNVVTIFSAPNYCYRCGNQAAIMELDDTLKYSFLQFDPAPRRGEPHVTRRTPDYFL", "T1 sequence (Q16537 2-467)": "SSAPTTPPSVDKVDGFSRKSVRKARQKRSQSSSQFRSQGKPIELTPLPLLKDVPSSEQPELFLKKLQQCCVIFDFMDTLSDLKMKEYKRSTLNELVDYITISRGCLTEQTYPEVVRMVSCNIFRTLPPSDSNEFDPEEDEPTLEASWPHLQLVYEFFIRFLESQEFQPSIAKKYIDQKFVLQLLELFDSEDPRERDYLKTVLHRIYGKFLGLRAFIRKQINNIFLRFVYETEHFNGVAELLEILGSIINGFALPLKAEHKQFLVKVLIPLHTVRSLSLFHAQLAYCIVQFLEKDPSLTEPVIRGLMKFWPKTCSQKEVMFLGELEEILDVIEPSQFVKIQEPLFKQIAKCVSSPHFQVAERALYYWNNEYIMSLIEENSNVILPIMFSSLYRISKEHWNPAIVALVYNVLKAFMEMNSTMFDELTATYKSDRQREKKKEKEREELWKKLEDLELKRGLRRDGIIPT", "assay": "PP2A phosphatase activity in treated KOPT-K1 cells", "format": "cell-based", "conditions": "KOPT-K1, 10 μM for 3 hours", "protocol": "(§3) Data are presented as means±s.d. (n=3, biological replicates). KO; knock out. **P<0.01, ***P<0.001 by student's t-test.\nas §1\nas §2, with “For PP2A phosphatase activity assay, KOPT-K1 cells were treated with each of the compound at 10 μM for three hours before the activity of PP2A was quantified using PP2A Immunoprecipitation Phosphatase Assay Kit (Merck Millipore®).” left out"}, "PP2A [4]": {"system": "PP2A", "assay": "PP2A phosphatase activity in treated KOPT-K1 cells", "format": "cell-based, human", "conditions": "KOPT-K1 cells, 10 μM", "protocol": "as §3, §1\nas §2, with “For PP2A phosphatase activity assay, KOPT-K1 cells were treated with each of the compound at 10 μM for three hours before the activity of PP2A was quantified using PP2A Immunoprecipitation Phosphatase Assay Kit (Merck Millipore®).” left out"}, "[5]": {"biological_target": "T2, human dopamine receptor D2 (DRD2) (Homo sapiens, UniProt P14416)", "T2 construct": "expressed in transfected cells; host or cells: HEK293T (pcDNA3 vectors)", "T2 sequence (P14416 whole entry)": "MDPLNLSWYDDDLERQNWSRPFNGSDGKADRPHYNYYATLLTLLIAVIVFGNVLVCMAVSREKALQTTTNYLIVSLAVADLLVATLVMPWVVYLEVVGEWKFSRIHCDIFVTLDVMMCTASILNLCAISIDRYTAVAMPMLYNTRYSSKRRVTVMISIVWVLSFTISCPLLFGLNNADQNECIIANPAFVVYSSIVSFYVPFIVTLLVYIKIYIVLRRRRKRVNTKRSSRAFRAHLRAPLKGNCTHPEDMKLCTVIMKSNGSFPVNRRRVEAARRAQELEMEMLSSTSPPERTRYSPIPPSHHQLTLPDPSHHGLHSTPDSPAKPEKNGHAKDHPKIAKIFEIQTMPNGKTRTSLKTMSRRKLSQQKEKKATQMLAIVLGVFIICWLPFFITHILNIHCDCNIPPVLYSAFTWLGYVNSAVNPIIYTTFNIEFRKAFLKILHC", "assay": "Dopamine receptor D2 inhibition assay (SRE-luciferase reporter in HEK293T cells)", "format": "cell-based", "conditions": "for inhibition of DRD2 signaling: 10 μM for 3 hours", "source_text": "(§4) The human dopamine receptor D2 (DRD2) and modified murine Gq5i cDNAs were inserted into pcDNA3 expression vectors. After verifying the PCR products by DNA sequencing, DRD2, Gq5i and the PathDetect pSRE-Luc Cis-Reporter Plasmid (#219080, Agilent Technologies) were transfected to HEK293T cells. As previously reported, Gq5i enables Gi/o-coupled receptor activity to be detected using a serum response element (SRE)-luciferase reporter gene (See, Conklin et al., Nature 363(6426):274-6 (1993); Al-Fulaij et al., J. Pharmacol. Exp. Ther. 321(1):298-307 (2007)). These cells were starved in FCS-free DMEM medium for six hours before incubating them with 2 μM dopamine hydrochloride (Sigma Aldrich) together with each of the compound at 0, 0.5, 1, 2 and 4 μM for three hours. The reporter activity was measured using Pierce™ Firefly Luciferase Glow Assay Kit (Thermo Fisher Scientific).\nas §1\nas §4, with “D2” for “D2 (DRD2)”, “363(6426):274-276” for “363(6426):274-6”, “0.5” for “0, 0.5, 1, 2 and 4”"}, "KOPT-K1 cells [6]": {"system": "KOPT-K1 cells", "assay": "Cell cycle status by PI flow cytometry", "format": "cell-based, human", "conditions": "10 μM and 20 μM, 24 hours", "protocol": "Relative DNA content of cells in each of the samples was determined by measuring PI (propidium iodide) staining using flow cytometry. The results are illustrated in FIG. 31A-FIG. 31B.\nRelative DNA content of cells in each of the samples was determined as described above."}, "[7]": {"biological_target": "tubulin from porcine brain (Sus scrofa, UniProt P02550+P02554)", "sequence (P02550 whole entry)": "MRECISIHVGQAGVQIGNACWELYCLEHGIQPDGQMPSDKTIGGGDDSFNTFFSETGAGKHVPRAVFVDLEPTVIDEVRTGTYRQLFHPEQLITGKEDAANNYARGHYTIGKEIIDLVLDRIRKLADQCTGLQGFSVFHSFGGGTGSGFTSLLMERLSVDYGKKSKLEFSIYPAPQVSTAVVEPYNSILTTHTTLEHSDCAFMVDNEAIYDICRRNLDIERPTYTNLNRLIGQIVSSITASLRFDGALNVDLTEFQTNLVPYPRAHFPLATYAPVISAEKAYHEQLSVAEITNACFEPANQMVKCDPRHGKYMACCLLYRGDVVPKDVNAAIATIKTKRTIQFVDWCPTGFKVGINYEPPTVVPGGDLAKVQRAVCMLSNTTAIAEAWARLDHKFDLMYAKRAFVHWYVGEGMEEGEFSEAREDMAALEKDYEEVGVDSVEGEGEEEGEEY", "sequence (P02554 whole entry)": "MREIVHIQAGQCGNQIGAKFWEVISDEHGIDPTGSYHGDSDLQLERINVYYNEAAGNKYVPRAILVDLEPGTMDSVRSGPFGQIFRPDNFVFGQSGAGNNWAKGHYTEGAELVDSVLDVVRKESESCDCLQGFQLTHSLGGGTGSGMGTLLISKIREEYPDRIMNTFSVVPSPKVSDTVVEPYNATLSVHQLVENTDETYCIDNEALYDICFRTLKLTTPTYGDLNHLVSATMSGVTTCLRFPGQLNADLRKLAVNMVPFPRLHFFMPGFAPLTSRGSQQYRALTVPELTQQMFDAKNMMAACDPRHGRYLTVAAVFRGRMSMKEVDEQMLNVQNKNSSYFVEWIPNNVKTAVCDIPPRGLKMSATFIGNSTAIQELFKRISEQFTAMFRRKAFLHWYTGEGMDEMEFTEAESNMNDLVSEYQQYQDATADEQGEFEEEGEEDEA", "assay": "Fluorescence-based tubulin polymerization assay", "conditions": "3 μM", "description": "Briefly, free tubulin (2 mg/mL) in buffer supplemented with 1 mM GTP and 15% glycerol was employed. Then, the test compounds were added to tubulin solution and changes in the fluorescence intensity (ex=370 nm, em=445 nm) were measured by kinetic reading at 37° C. using SpectraMax® M5 Microplate reader (Molecular Devices LLC)."}, "KOPT-K1 cells [8]": {"system": "KOPT-K1 cells", "assay": "Microtubule and chromatin staining of cytospins", "format": "cell-based, human", "conditions": "0.001 and 0.0001 μM, 24 hours"}, "[9]": {"conditions": "0.5 μM for three hours with 2 μM dopamine"}}, "note": "Where two headings read alike, the source gives them in different places."}
{"compound": "O=S(=O)(N[C@@H]1CCC[C@H](N2c3ccccc3Oc3ccccc32)[C@H]1O)c1ccc(OC(F)(F)F)cc1", "note": "[SMAP, reference compound]", "values": [{"measurement": "IC50", "setting": "KOPT-K1 cells [1]", "result": "~5", "unit": "µM"}, {"measurement": "PP2A subunits whose knockout gives resistance", "setting": "[2]", "result": "resistant to SMAP treatment only when the PPP2R1A, PPP2CA or PPP2R2A subunit was disrupted"}, {"measurement": "PP2A subunits co-immunoprecipitated with anti-PPP2CA antibody", "setting": "PP2A subunits", "result": "trimeric complex nucleated by SMAP contains PPP2CA, PPP2R1A and PPP2R2A"}, {"measurement": "PP2A activation potential", "setting": "PP2A [3]", "result": "much less potent than iPAP1, iPAP2, iPAP3 or iPAP4 in phosphatase activity"}, {"measurement": "phosphatase activity of PP2A relative to basal level", "setting": "PP2A [4]", "result": "up to twice its basal level"}, {"measurement": "inhibitory activities on DRD2", "setting": "[5]; [9]", "result": "did not show inhibitory activities on DRD2"}, {"measurement": "inhibition of DRD2 signaling", "setting": "[5]", "result": "lacked DRD2 inhibitory activity"}, {"measurement": "cell cycle status", "setting": "KOPT-K1 cells [6]", "result": "arrested in G0/G1 phase"}]}
{"compound": "O=c1[nH]c2ccccc2n1CCCN1CCC(n2c(=O)[nH]c3cc(Cl)ccc32)CC1", "note": "[domperidone, reference compound]", "values": [{"measurement": "inhibition of DRD2 signaling", "setting": "[5]", "result": "strong inhibitors"}]}
{"compound": "C=C[C@@]1(C)CC(=O)[C@]2(O)[C@@]3(C)[C@@H](O)CCC(C)(C)[C@@H]3[C@H](O)[C@H](OC(C)=O)[C@@]2(C)O1", "note": "[forskolin, reference compound]", "values": [{"measurement": "inhibition at 0.5 µM", "setting": "[5]; HEK-293T, 0.5 μM for three hours with 2 μM dopamine", "result": "~30", "unit": "%"}]}
{"compound": "COc1ccc(C(=O)N2c3ccccc3Sc3ccc([N+](=O)[O-])cc32)cc1", "note": "[iPAP2]", "values": [{"measurement": "IC50", "setting": "KOPT-K1 cells [1]; Homo sapiens, KOPTK1, 72 h", "result": "~1", "unit": "µM"}]}
{"compound": "COc1ccc(C(=O)N2c3ccccc3Sc3ccc(C#N)cc32)cc1", "note": "[iPAP3]", "values": [{"measurement": "IC50", "setting": "KOPT-K1 cells [1]; Homo sapiens, KOPTK1, 72 h", "result": "~0.3", "unit": "µM"}]}
{"compound": "COc1ccc(C(=O)N2c3ccccc3Sc3cc(C#N)ccc32)cc1", "note": "[iPAP4]", "values": [{"measurement": "IC50", "setting": "KOPT-K1 cells [1]", "result": "0.03 to 0.04", "unit": "µM"}, {"measurement": "IC50", "setting": "KOPT-K1 cells [1]; Homo sapiens, KOPTK1, 72 h", "result": "~0.03", "unit": "µM"}, {"measurement": "IC50 lower than PPZ", "setting": "KOPT-K1 cells [1]; KOPT-K1, 72 hours", "result": "~100", "unit": "fold"}, {"measurement": "IC50 lower than iPAP1", "setting": "KOPT-K1 cells [1]; KOPT-K1, 72 hours", "result": "~10", "unit": "fold"}, {"measurement": "PP2A activation potential", "setting": "PP2A [3]", "result": "relatively high PP2A activation potential compared to PPZ"}, {"measurement": "inhibition of DRD2 signaling", "setting": "[5]", "result": "very low inhibition of DRD2 signaling"}]}
{"compound": "Cc1ccccc1C(=O)N1c2ccccc2Sc2ccc(Cl)cc21", "note": "[iPAP5]", "values": [{"measurement": "inhibitory activities on DRD2", "setting": "[5]; [9]", "result": "did not show inhibitory activities on DRD2"}]}
{"compound": "CCN1CCCC1CNC(=O)c1cc(S(N)(=O)=O)ccc1OC", "note": "(stereo not shown) [sulpiride, reference compound]", "values": [{"measurement": "inhibition of DRD2 signaling", "setting": "[5]", "result": "strong inhibitors"}]}
{"compound": "CC[C@]1(O)C[C@H]2CN(CCc3c([nH]c4ccccc34)[C@@](C(=O)OC)(c3cc4c(cc3OC)N(C=O)[C@H]3[C@@](O)(C(=O)OC)[C@H](OC(C)=O)[C@]5(CC)C=CCN6CC[C@]43[C@@H]65)C2)C1", "note": "[vincristine, reference compound]", "values": [{"measurement": "inhibition of tubulin polymerization", "setting": "[7]", "result": "markedly inhibited tubulin polymerization"}, {"measurement": "mitotic and microtubule phenotype", "setting": "KOPT-K1 cells [8]", "result": "without detectable microtubules"}]}
